Source: article PMC11117333, “Design and synthesis of new dihydropyrimidine/sulphonamide hybrids as promising anti-inflammatory agents via dual mPGES-1/5-LOX inhibition” (Frontiers in Chemistry, 2024)
Where “and” joins values, the source holds several entries; their conditions need not be identical. Equal values may be shown once. Read-outs that look alike come from different tables or passages of the source. Marks after values point to notes of the source that are not given here.

How the values were obtained:
mPGES-1 [1] = biological target: T1, mPGES-1 (Homo sapiens, UniProt O14684); settings: cited from earlier work; for IC50: ref Lauro et al., 2014
T1 construct: microsomal fractions from IL-1β-stimulated A549 cells served as the enzyme source; endogenous in cells; host or cells: A549 cells (IL-1β-stimulated), microsomal fraction
T1 sequence (O14684 1-152): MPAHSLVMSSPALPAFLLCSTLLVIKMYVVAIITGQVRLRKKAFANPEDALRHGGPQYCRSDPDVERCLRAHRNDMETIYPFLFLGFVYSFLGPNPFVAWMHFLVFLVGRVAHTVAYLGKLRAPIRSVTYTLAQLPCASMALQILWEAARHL

5-LOX = settings: cited from earlier work
soya bean 5-LOX = biological target: T2, soya bean 5-LOX (Glycine max, UniProt P08170); assay: 5-LOX enzyme assay (EIA kit, Cayman 760700); format: biochemical
T2 construct: purchased Cayman Chemical, Ann Arbor, Michigan, USA 760700
T2 sequence (P08170 1-839): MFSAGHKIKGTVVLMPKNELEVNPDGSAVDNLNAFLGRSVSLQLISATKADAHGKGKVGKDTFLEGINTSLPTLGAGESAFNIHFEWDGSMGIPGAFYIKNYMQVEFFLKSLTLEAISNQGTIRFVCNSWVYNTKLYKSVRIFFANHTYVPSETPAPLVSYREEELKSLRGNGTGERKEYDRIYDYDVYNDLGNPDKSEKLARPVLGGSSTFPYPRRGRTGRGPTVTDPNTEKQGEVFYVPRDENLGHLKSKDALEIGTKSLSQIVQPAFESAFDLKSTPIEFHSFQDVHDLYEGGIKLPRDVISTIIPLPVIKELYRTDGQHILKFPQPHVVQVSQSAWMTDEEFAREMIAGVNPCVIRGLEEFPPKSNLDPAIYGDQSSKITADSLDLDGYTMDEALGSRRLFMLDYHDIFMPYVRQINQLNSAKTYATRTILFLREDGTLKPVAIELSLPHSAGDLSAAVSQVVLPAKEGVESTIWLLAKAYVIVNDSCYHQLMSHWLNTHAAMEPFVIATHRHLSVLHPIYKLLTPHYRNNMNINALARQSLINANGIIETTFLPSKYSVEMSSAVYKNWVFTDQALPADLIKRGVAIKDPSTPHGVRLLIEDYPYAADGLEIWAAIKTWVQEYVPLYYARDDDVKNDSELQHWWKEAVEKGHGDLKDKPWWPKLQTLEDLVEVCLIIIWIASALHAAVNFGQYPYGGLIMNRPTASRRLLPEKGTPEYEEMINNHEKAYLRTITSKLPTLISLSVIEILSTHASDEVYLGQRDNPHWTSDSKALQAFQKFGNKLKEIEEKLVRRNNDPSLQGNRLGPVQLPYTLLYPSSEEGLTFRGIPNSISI
Source text: The capacity of compounds 3a–j to inhibit the enzyme 5-lipoxygenase (5-LOX) has been investigated ([Youssif et al., 2019]).
The study used an enzyme immune assay (EIA) kit (catalogue no. 760700, Cayman Chemical, Ann Arbor, Michigan, USA) to evaluate the inhibitory activity of target analogues against soya bean 5-LOX, ensuring compliance with manufacturer’s instructions and protocols, and calculating IC50 values ([Roschek et al., 2009]).

[2] = system: carrageen-induced paw edema; assay: Carrageenan-induced paw edema bioassay; format: in vivo, rat; parameters: concentration or dose not given beside the values
Method: The compounds’ efficacy was measured as edema inhibition percentage (EI %) after 1, 3, and 5 h of carrageenan injection vs. the conventional medicine Celecoxib.
Compounds 3c, 3e, 3h, and 3j were chosen for in vivo anti-inflammatory testing using the carrageen-induced paw edema bioassay method described by [Winter et al, (1962)]. The compounds’ efficacy was measured as edema inhibition percentage (EI%) after 1, 3, and 5 h of carrageenan injection vs. the conventional medicine Celecoxib.

TNF-α = assay: Rat serum TNF-α after carrageenan (ELISA); format: in vivo
Source text: (§1) In this study, specializing ELISA kits were used to determine the concentration of inflammatory cytokines PGE2, IL-6, and TNF-α. The study’s findings were examined in accordance with the instructions provided by the manufacturer, and measurements were taken based on the optical density at 450 nm.

mPGES-1 [3] = biological target: T1, mPGES-1; assay: Cell-free mPGES-1 enzyme assay (microsomal fractions from IL-1β-stimulated A549 cells); format: biochemical
Method: A cell-free assay was conducted to evaluate the capacity of compounds […] to act as inhibitors of mPGES-1. In this assay, microsomal fractions from IL-1β-stimulated A549 cells served as the enzyme source ([Gürses et al., 2021]). During the initial screening phase, compounds 3a–j were examined for their effects on mPGES-1 at a concentration of 10 µM.
Microsomal measures of A549 cells expressing mPGES-1 were made in accordance with prior research findings ([Koeberle et al., 2008]). These cells were cultivated in Dulbecco’s Modified Eagle Medium and resuspended in a homogenization buffer. Subsequently, the microsomes were subjected to pre-incubation with either assessed compounds or a carrier solution containing 0.1 percent DMSO. The enzymatic process was halted by introducing FeCl3, citric acid, and 11-PGE2 as an internal standard. The quantities of Prostaglandin E2 (PGE2) were measured via RP-HPLC methodologies.

IL-6 = assay: Rat serum IL-6 after carrageenan (ELISA); format: in vivo
Source text: as §1

PGE2 = assay: Rat serum PGE2 after carrageenan (ELISA); format: in vivo; settings: 4 hours after subcutaneous carrageenan
Source text: Inhibiting PGE2 is a crucial strategy in anti-inflammatory therapy, playing a pivotal role in managing inflammation and its associated conditions.
as §1

rat intestinal mucosa = assay: Gastric ulcerogenic activity (macroscopic inspection); format: in vivo; parameters: Score: Severity lesions: scale not given here; settings: oral 10 mg/kg
Method: The two most common side effects of long-term NSAID use are gastrointestinal erosion and ulcers ([Hendawy et al., 2021]). As a result, we were curious about the ulcerogenic potential of the most efficacious drugs, 3e and 3j, when given orally. The ulcerogenic effects of 3e and 3j were assessed by macroscopic inspection of rat intestinal mucosa after oral administration of 10 mg/kg of 3e, 3j, indomethacin, and celecoxib ([Manivannan and Chaturvedi, 2011]).
The ulcerogenic effects of compounds 3e and 3j were evaluated by macroscopic examination of rat intestinal mucosa after oral administration of 10 mg/kg of these compounds and indomethacin and celecoxib ([Manivannan and Chaturvedi, 2011]). See Appendix A for details.

[4] = system: PGE2 production in A549 cells; parameters: method as in Kim et al., 2021; settings: ref Kim et al., 2021; cited from earlier work

In the case of `CCOC(=O)C1=C(C(=O)c2ccc(OC)cc2)C(c2ccc(-c3cccc(C(F)(F)F)c3)o2)NC(=O)N1` (centres unmarked) [I], the IC50 (mPGES-1 [1]) is given as 4160 ± 470 nM.
In the case of `O=C(Cc1cn(-c2ccccc2)nc1-c1ccc(Cl)cc1)NS(=O)(=O)c1ccc(Cl)cc1` [VIII], the “folds more potent than lonazolac calcium against mPGES-1” value (mPGES-1 [1]; ref Elkady et al., 2012) is given as 19 fold, the IC50 (5-LOX; ref Elkady et al., 2012) is given as 2900 nM and the “folds more potent than lonazolac calcium against 5-LOX” value (5-LOX; ref Elkady et al., 2012) is given as 20 fold.
In the case of `CC1=C(C(=O)OCc2ccccc2)C(c2ccc(-c3cccc(C(F)(F)F)c3)o2)NC(=O)N1CCC(=O)O` (centres unmarked) [III], the “fold higher activity than compound I (mPGES-1)” value (mPGES-1 [1]; ref Terracciano et al., 2015) is given as 10 fold.
In the case of `COc1ccc(C2NC(=O)NC(C)=C2C(=O)Nc2ccc(S(N)(=O)=O)cc2)cc1OC` (centres unmarked) [Compound 3j, 4-[3,4-dimethoxyphenyl]-6-methyl-2-oxo-N-[4-sulfamoylphenyl]-1,2,3,4-tetrahydropyrimidine-5-carboxamide], the IC50 (soya bean 5-LOX) is reported as 1980 nM and 1890 nM, the “% Of edema inhibition 1 h” value ([2]; 1 h after carrageenan injection) is reported as 38% and the “% Of edema inhibition 3 h” value ([2]; 3 h after carrageenan injection) is reported as 60%. For the same compound, the “% Of edema inhibition 5 h” value ([2]; 5 h after carrageenan injection) was 71%, the TNFα %inhibition (TNF-α) was 71% and the TNFα serum concentration (TNF-α; mean ± SE) was 68.50 ± 2.00^bc pg/mL. It also gave a melting point of 266 to 267 °C, a remaining activity at 10 µM (mPGES-1 [3]; 10 µM compound, cell-free, A549 microsomes, read-out: mPGES-1 RA (%) 10 µM (residual activity percentage)) of 24.7% and an IC50 (mPGES-1 [3]; cell-free, A549 microsomes) of 920 nM. For the same compound, the “fold more potent than the reference MK886 (mPGES-1)” value (mPGES-1 [3]; from IC50 values) was 2.4 fold, the IL-6 %inhibition (IL-6) was 77% and the IL-6 serum concentration (IL-6; mean ± SE) was 85.50 ± 2.35^bc pg/mL. The PGE2 %inhibition (PGE2) was 79.20% and 79%, the PGE2 serum concentration (PGE2; mean ± SE) was 62.60 ± 2.75 ^b pg/mL and the “Score: No. of gastric ulcers” value (rat intestinal mucosa) was 0. The “Score: Severity lesions” value (rat intestinal mucosa) was 0 and the “Ulceration in the isolated rat stomach (in words)” value (rat intestinal mucosa) was “did not generate ulceration”.
In the case of `O=C(Nc1ccc(OCCCCc2ccccc2)cc1)N(Cc1ccccc1)S(=O)(=O)c1ccc(Cl)cc1` [VI], the IC50 [4] is listed as 240 nM and the “fold more active than the standard inhibitor MK-886 (PGE2 production)” value [4] is listed as “about 9 fold”.
In the case of `COc1ccc2c(c1)c(CC(=O)NS(=O)(=O)c1ccc(C)cc1)c(C)n2C(=O)c1ccc(Cl)cc1` [VII], the IC50 (5-LOX; ref Elkady et al., 2012) is given as 2900 nM.
In the case of `COC(=O)C1=C(C)NC(Nc2cc(O)cc(Cl)c2)=NC1c1ccc(Cl)cc1` (centres unmarked) [V], the 5-LOX % inhibition (5-LOX; 2.46 µM concentration, ref Venugopala et al., 2015) is listed as 81.19%.
In the case of `CCOC(=O)C1=C(C(=O)c2ccc(OC)cc2)C(c2ccc(-c3cccc(C(F)(F)F)c3)o2)NC(=O)N1C` (centres unmarked) [II], the IC50 (mPGES-1 [1]) is listed as 7560 ± 940 nM.
For `CCOC(=O)CCSC1=NC(c2ccccc2)C=C(c2ccccc2)N1` (centres unmarked) [IV], the “5-LOX % inhibition at 100 μg/mL” value (5-LOX; 100 μg/mL, ref Lokwani et al., 2015) is listed as 51.84% and the IC50 (5-LOX; ref Lokwani et al., 2015) is listed as 19100 nM.
